{"source": "patent US20100179151A1", "about": "“TRANSDERMAL APPLICATION OF TRIAZINES FOR CONTROLLING INFECTIONS WITH COCCIDIA” (BAYER ANIMAL HEALTH GMBH, priority 2006, published 2010)", "type_in_all_cases": "in vivo", "key": {"[1]": {"assay": "Percutaneous absorption in pigs: detection of active substance and main metabolite in serum and body tissues", "details": "pour-on, serum, musculature, skin, liver, kidney", "text": "Astonishingly, this is even the case in animal species with little hair. Animals with little hair, such as pigs, ensure the protective function of the outer integument via a thicker epidermis. It is entirely surprising that the active substance is absorbed across this thicker skin and in particular also across the stratum corneum of the skin, which is particularly thick in pigs. Moreover, the active substance can also not be taken up via the large number of hair follicles, as is in the case in other animal species with a thicker coat of hair."}, "[2]": {"assay": "Serum concentrations of toltrazuril and ponazuril after pour-on application in rabbits", "details": "for Toltrazuril in mg/l on day after the treatment (serum) / Ponazuril in mg/l on day after the treatment (serum, metabolite of toltrazuril): individual animals 1-3", "protocol": "(§1) A. Determination of the Serum Concentrations of Toltrazuril and Ponazuril after Pour-On Application in Calves and Rabbits On day 0, the formulation of Example 10 was applied externally at a dose of 20 mg per kg (body weight) to in each case three calves and rabbits. At the points in time specified in the tables, the serum concentrations of toltrazuril and its metabolite ponazuril (toltrazuril sulphone) were determined."}, "[3]": {"assay": "Serum concentrations of toltrazuril and ponazuril after pour-on application in calves", "protocol": "as §1"}, "[4]": {"test_system": "Isospora suis", "assay": "Activity of toltrazuril pour-on against artificially provoked infections in suckling pigs with Isospora suis", "details": "pour-on treatment", "protocol": "B. Activity of Toltrazuril Pour-On Against Artificially Provoked Infections in Suckling Pigs with Isospora suis: 3 groups with 4 to 11 animals were formed. Group A was infected with oocysts and treated with the toltrazuril pour-on formulation of Example 10. Group B was not infected, but treated in the same manner, the dosage rate of group A and B being in each case 20 mg/kg body weight. Group C was infected with oocysts, but not treated with toltrazuril. The success of the treatment was determined by monitoring the live weight of the animals. To this end, the animals were weighed on different days, and the weight gain of the individual animals was determined The results are shown in Table 3."}}, "note": "“And” between values parts separate entries of the source, which are not always exact repeats. Identical values can stand only once.", "data": [{"smiles": "Cc1cc(-n2c(=O)[nH]c(=O)n(C)c2=O)ccc1Oc1ccc(SC(F)(F)F)cc1", "note": "[Toltrazuril, toltrazuril]", "values": [{"measurement": "Percutaneous absorption: active substance and main metabolite detected in body tissues", "setting": "[1]", "result": "percutaneous absorption was also demonstrated"}, {"measurement": "Percutaneous absorption and metabolism after pour-on application", "setting": "[2]", "result": "percutaneously absorbed, and metabolised"}, {"measurement": "Toltrazuril in mg/l on day after the treatment (serum)", "setting": "[2]; day 1, formulation of Example 10 pour-on 20 mg/kg", "result": "9.06 mg/L and 8.67 mg/L and 9.67 mg/L"}, {"measurement": "Toltrazuril in mg/l on day after the treatment (serum)", "setting": "[2]; day 2, formulation of Example 10 pour-on 20 mg/kg", "result": "10.39 mg/L and 6.03 mg/L and 8.03 mg/L"}, {"measurement": "Toltrazuril in mg/l on day after the treatment (serum)", "setting": "[2]; day 3, formulation of Example 10 pour-on 20 mg/kg", "result": "6.66 mg/L and 5.07 mg/L and 6.70 mg/L"}, {"measurement": "Percutaneous absorption and metabolism after pour-on application", "setting": "[3]", "result": "percutaneously absorbed, and metabolised"}, {"measurement": "Toltrazuril in mg/l on day after the treatment (serum)", "setting": "[3]; day 0, formulation of Example 10 applied externally (pour-on) 20 mg/kg, individual animals 1-3, LoQ 25 μg/l", "result": "<LoQ"}, {"measurement": "Toltrazuril in mg/l on day after the treatment (serum)", "setting": "[3]; day 1, formulation of Example 10 pour-on 20 mg/kg, individual animals 1-3", "result": "2180 mg/L and 650 mg/L and 2281 mg/L"}, {"measurement": "Toltrazuril in mg/l on day after the treatment (serum)", "setting": "[3]; day 7, formulation of Example 10 pour-on 20 mg/kg, individual animals 1-3", "result": "9246 mg/L and 2042 mg/L and 2275 mg/L"}, {"measurement": "Toltrazuril in mg/l on day after the treatment (serum)", "setting": "[3]; day 13, formulation of Example 10 pour-on 20 mg/kg, individual animals 1-3", "result": "2194 mg/L and 1806 mg/L and 702 mg/L"}, {"measurement": "Toltrazuril in mg/l on day after the treatment (serum)", "setting": "[3]; day 21, formulation of Example 10 pour-on 20 mg/kg, individual animals 1-3", "result": "462 mg/L and 371 mg/L and 430 mg/L"}, {"measurement": "Control of massive infection with Isospora suis", "setting": "[4]", "result": "successfully controlled"}, {"measurement": "Elimination of oocysts (parasitological efficacy)", "setting": "[4]", "result": "reduced elimination of oocysts"}, {"measurement": "Incidence of diarrhoea (clinical efficacy)", "setting": "[4]", "result": "reduced incidence of diarrhoea"}, {"measurement": "Weight development (clinical efficacy)", "setting": "[4]", "result": "better weight development"}]}, {"smiles": "Cc1cc(-n2c(=O)[nH]c(=O)n(C)c2=O)ccc1Oc1ccc(S(=O)(=O)C(F)(F)F)cc1", "note": "[Ponazuril, ponazuril]", "values": [{"measurement": "Ponazuril in mg/l on day after the treatment (serum, metabolite of toltrazuril)", "setting": "[2]; day 1, toltrazuril formulation of Example 10 pour-on 20 mg/kg", "result": "1.79 mg/l and 1.38 mg/l (2×)"}, {"measurement": "Ponazuril in mg/l on day after the treatment (serum, metabolite of toltrazuril)", "setting": "[2]; day 2, toltrazuril formulation of Example 10 pour-on 20 mg/kg", "result": "4.72 mg/L and 2.63 mg/L and 2.83 mg/L"}, {"measurement": "Ponazuril in mg/l on day after the treatment (serum, metabolite of toltrazuril)", "setting": "[2]; day 3, toltrazuril formulation of Example 10 pour-on 20 mg/kg", "result": "5.03 mg/L and 4.07 mg/L and 3.42 mg/L"}, {"measurement": "Ponazuril in mg/l on day after the treatment (serum, metabolite of toltrazuril)", "setting": "[3]; day 0, toltrazuril formulation of Example 10 pour-on 20 mg/kg, individual animals 1-3, LoQ 25 μg/l", "result": "<LoQ"}, {"measurement": "Ponazuril in mg/l on day after the treatment (serum, metabolite of toltrazuril)", "setting": "[3]; day 1, toltrazuril formulation of Example 10 pour-on 20 mg/kg, individual animals 1-3", "result": "156 mg/L and 44 mg/L and 146 mg/L"}, {"measurement": "Ponazuril in mg/l on day after the treatment (serum, metabolite of toltrazuril)", "setting": "[3]; day 7, toltrazuril formulation of Example 10 pour-on 20 mg/kg, individual animals 1-3", "result": "9715 mg/L and 2735 mg/L and 2615 mg/L"}, {"measurement": "Ponazuril in mg/l on day after the treatment (serum, metabolite of toltrazuril)", "setting": "[3]; day 13, toltrazuril formulation of Example 10 pour-on 20 mg/kg, individual animals 1-3", "result": "4506 mg/L and 3440 mg/L and 1905 mg/L"}, {"measurement": "Ponazuril in mg/l on day after the treatment (serum, metabolite of toltrazuril)", "setting": "[3]; day 21, toltrazuril formulation of Example 10 pour-on 20 mg/kg, individual animals 1-3", "result": "1394 mg/L and 733 mg/L and 1172 mg/L"}]}]}
